From patent US5112595A, “99MTC(III) myocardial imaging agents and method of use” (Mallinckrodt Medical, Inc., priority 1990, dated 1992) come the findings set out here.

This series is described as follows: Biodistribution of Tc-99m (III) complexes in guinea pigs. In kind it is in vivo.

Source text: Biodistribution Data of Selected Tc-99m (III) Complexes in Guinea Pigs

Consider “trans-[1,2-bis[dihydro-2,2,5,5-tetramethyl-3(2H)furanone-4-methyleneamino]ethane]bis-[tris(3-methoxypropyl)phosphine]technetium-99 m(III) [Complex I]”, for which the “% Heart uptake” value came to 0.8 %Injected dose/Organ (5 min) and 0.9 %Injected dose/Organ (60 min). Further, the Heart/Blood is, setting by setting: (ratio at 5 min) 4.6; (ratio at 60 min) 35.6. Besides, the Heart/Liver reads like this: (ratio at 5 min) 1.5; (ratio at 60 min) 6.6.
As for “trans-[1,2-bis[dihydro-2,2,5,5-tetramethyl-3(2H)furanone-4-methyleneamino]ethane]bis-tris(2-(2-(1,3-dioxanyl))]ethylphosphine]technetium-99m(III) [Complex IV]”, the “% Heart uptake” value runs as follows: (5 min) 0.8 %Injected dose/Organ; (60 min) 0.9 %Injected dose/Organ. For the same substance, the Heart/Blood is, setting by setting: (ratio at 5 min) 5.4; (ratio at 60 min) 58.6. The Heart/Liver was determined as 1.2 (ratio at 5 min) and 3.0 (ratio at 60 min).
In the case of “trans-[1,2-bis[dihydro-2,2,5,5-tetramethyl-3(2H)furanthione-4-methyleneamino]ethane]-bis[tris(3-methoxypropyl)phosphine]technetium-99m (III) [Complex III]”, the “% Heart uptake” value (5 min) was found to be 1.1 %Injected dose/Organ and the “% Heart uptake” value (60 min) came out at 1.0 %Injected dose/Organ. Moreover, the Heart/Blood by setting is: (ratio at 5 min) 5.9; (ratio at 60 min) 3.5. For the same substance, the Heart/Liver reads like this: (ratio at 5 min) 0.9; (ratio at 60 min) 1.5.
Take “trans-[1-[dihydro-2,2,5,5-tetramethyl-3(2H)furanthione-4-methyleneamino]-2-[dihydro-2,2,5,5-tetramethyl-3(2H)furanone-4-methyleneaminoethane]bis[tris(3-methoxypropyl)phosphine]technetium99 m(III) [Complex II]”: the “% Heart uptake” value reads like this: (5 min) 0.9 %Injected dose/Organ; (60 min) 0.8 %Injected dose/Organ. For the same substance, the Heart/Blood amounted to 6.1 (ratio at 5 min) and 26.5 (ratio at 60 min). Moreover, the Heart/Liver runs as follows: (ratio at 5 min) 1.6; (ratio at 60 min) 5.6.
